Measurements taken from article doi:10.1101/2025.08.13.670122v1 (bioRxiv, 2025).
Where two headings read alike, the source gives them in different places.

Target: T1, endogenous AT1R (Rattus norvegicus, UniProt P25095)
T1 construct: expressing low levels of endogenous AT1R; endogenous in cells; host or cells: rat primary VSMC, passages 13-15
T1 sequence (P25095 1-359): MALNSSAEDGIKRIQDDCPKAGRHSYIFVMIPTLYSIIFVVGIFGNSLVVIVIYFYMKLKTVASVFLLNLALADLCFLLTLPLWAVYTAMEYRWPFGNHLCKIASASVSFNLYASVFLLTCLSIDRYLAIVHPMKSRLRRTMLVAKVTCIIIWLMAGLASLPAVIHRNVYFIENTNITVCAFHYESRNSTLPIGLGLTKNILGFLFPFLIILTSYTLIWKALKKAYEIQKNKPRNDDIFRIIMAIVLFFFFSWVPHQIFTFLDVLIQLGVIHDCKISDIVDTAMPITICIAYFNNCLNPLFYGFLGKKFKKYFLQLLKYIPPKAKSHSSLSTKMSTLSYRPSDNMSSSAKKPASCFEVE
Test: Rho BRET sensor in rat primary VSMC with endogenous AT1R
Type: cell-based
Conditions: for Emax Rho in VSMCs (% AngII): Rho sensor, for 12 and TRV027 response at 10 μM; for EC50: adenoviral Rho BRET sensor, 1 min 30 s stimulation, mean ± SEM of at least three to five independent experiments, read-out: EC50 Rho in VSMCs
Source text: We next assessed the analogs’ ability to engage Gαq by assessing either the PKC or Rho responses in rat primary vascular smooth muscle cell (VSMC) culture, expressing low levels of endogenous AT1R (between 25–50 fmol/mg) (Figure 4, Table 6).
The coding regions of the PKC-c1b sensor, PKN-RBD-RlucII, and rGFPcaax were PCR-amplified and subcloned into the KpnI/XhoI sites of the pENTR3C vector (Invitrogen), respectively. These were then transferred into the adenoviral expression vector pAd/CMV/V5-DEST (Invitrogen), via gateway cloning (pAD-CMV-PKC-c1b, pAD-CMV-PKN-RBD-RLucII, and pAD-CMV-rGFPcaax). Viruses containing the sensor codes were generated following a previously outlined process.[49] […] The following day, cells were transfected with 4 µg of PacI-digested pAd5-CMVsensors using Lipofectamine 2000 (Invitrogen). After 7–10 days post-transfection, mature virus particles were gleaned via the collection of cells and media, which then underwent multiple cycles of freezing and thawing, followed by centrifugation. The harvested virus was amplified by re-infection on 100-mm dishes of confluent HEK293A cells, and harvested 48-72 h later. Viral titers were determined by serial dilution of adenovirus stock and subsequent infection of HEK293A cells in 96-well plates. 36 h after infection, cells were stained using an anti-hexon antibody (ab8249; Abcam), and hexon-expressing cells were tallied via fluorescence microscopy. The virus was then stored at −80°C. After this, rat VSMCs (between the 13th to 15th passages) were seeded at a density of 20,000 cells in each well of white 96-well plates 24 h before transduction with the viral vector. The cells were then transduced with the PKC sensor-adenovirus (3 μL per well) or Rho sensor (1 μL each per well of PKN-RBD-RLucII-adnovirus and rGFP-caax adenovirus). After 24 h, the medium was replaced. 48 h post-viral transduction, the cells were thoroughly washed with Tyrode’s buffer. Finally, BRET assays were carried out as detailed below.
On the day of the experiment, each well was washed with 80 µL of Tyrode’s buffer (140 mM NaCl, 2.7 mM KCl, 1 mM CaCl2, 12 mM NaHCO3, 5.6 mM D-glucose, 0.5 mM MgCl2, 0.37 mM NaH2PO4, 25 mM Hepes (pH 7.4)). This was followed by incubation for 1 h in Tyrode’s buffer at room temperature. For the Gαq, β-arrestin-2, and PKC biosensors used in HEK293 cells, coelenterazine 400A (at a final concentration of 5 μM) was added 10 min before stimulation. Cells were then stimulated with increasing doses of the indicated ligand, and BRET signals were measured using a Tristar2 (Berthold) microplate reader 10 min later. For the PKC and Rho biosensors in VSMCs, and the Rho biosensor in ΔG12/13 cells, cells were similarly stimulated with ligands for 1 min, 1 min 30 s, and 3 min, respectively, before BRET measurement. […] BRET signals were then measured using a Synergy2 (BioTek) microplate reader. The applied filter set was 410/80 nm and 515/30 nm, designed to detect the light emissions of RlucII (Renilla luciferase) (donor) and rGFP (acceptor), respectively.

Emax Rho in VSMCs (% AngII)	EC50 (SEM) [nM]	EC50 [nM]	Compound
92	39.1 ± 11		CC[C@H](C)[C@H](NC(=O)[C@H](Cc1ccc(O)cc1)NC(=O)[C@@H](NC(=O)[C@H](CCCNC(=N)N)NC(=O)[C@@H](N)CC(=O)O)C(C)C)C(=O)N[C@@H](Cc1c[nH]cn1)C(=O)N1CCC[C@H]1C(=O)N[C@@H](Cc1ccc(OC)cc1)C(=O)O [compound 11]
12		> 10000	CC[C@H](C)[C@H](NC(=O)[C@H](Cc1ccc(O)cc1)NC(=O)[C@@H](NC(=O)[C@H](CCCNC(=N)N)NC(=O)[C@@H](N)CC(=O)O)C(C)C)C(=O)N[C@@H](Cc1c[nH]cn1)C(=O)N1CCC[C@H]1C(=O)N[C@@H](Cc1ccc(OCc2ccccc2)cc1)C(=O)O [compound 12]
